The subject of test [1] is dry eye model. The test can be described thus: Tear film breakup time (BUT) test, dry eye model by systemic (intraperitoneal) erlotinib (Example 3). Type of test: in vivo, mice. The following applies: 0.003% (w/v) apocynin in PBS, 3 μL twice a day, one week after start; erlotinib 50 mg/kg/day i.p. model; FIG. 5. The procedure: (§1) After acclimating male C57BL6 mice (7 weeks old) to the experimental environment, those with almost uniform body weight values and no eye abnormalities were divided into the following 3 groups (n=4). • 7 weeks old/normal (non-dry eye group) • 7 weeks old/dry eye model+control (solvent eye drop) group • 7 weeks old/dry eye model+apocynin eye drop group The dry eye model was prepared by dissolving erlotinib at a concentration of 5 mg/ml in 0.5% methylcellulose solution and administering it by intraperitoneal injection at a concentration of 50 mg/kg/day daily from the start of the study. The solvent 0.5% methylcellulose solution was similarly administered to the normal non-administration group. After one week of administration of erlotinib, the control group received PBS alone, and the test group received a solution of 0.003% (w/v) apocynin suspended in PBS twice a day at both eyes with 3 μL each. One week after the start of instillation, 1 μL of 0.1% sodium fluorescein solution was instilled into each of both eyes under isoflurane anesthesia, and the BUT test was performed under a blue filter using a slit lamp (Kowa Co., Ltd., SL-17) (FIG. 5).

The subject of test [2] is dry eye model. As to the kind of experiment: Fluorescein staining score (corneal damage), dry eye model by systemic erlotinib (Example 3). The following applies: 0.003% (w/v) apocynin eye drop twice a day, one week after start, FIG. 6. Type of test: in vivo, mice. The procedure: as §1, with “5). In Example 3, one week after the start of apocynin instillation, photographs were taken under isoflurane anesthesia, and the degree of corneal damage was scored (FIG. 6).” for “5).”

Test [3] deals with dry eye model. The test can be described thus: Fluorescein staining score, benzalkonium chloride dry eye model, Comparative Study 1 (Example 4). The test is classed as in vivo, mice. Here is the method:
After acclimating male C57BL6 mice (7 weeks old) to the experimental environment, those with almost uniform weight values and no eye abnormalities were divided into the following groups (n=4). • 7 weeks old/normal (non-dry eye group) • 7 weeks old/dry eye model+control (solvent eye drop) group • 7 weeks old/dry eye model+0.1% (w/v) apocynin eye drop group • 7 weeks old/dry eye model+0.5% (w/v) hyaluronic acid eye drop group A dry eye model was prepared by instilling the benzalkonium chloride solution at 3 μL each eye, twice a day for 8 days. After that, the control group received the 0.5% methylcellulose solution alone, and the test group received 0.1% (w/v) apocynin or 0.5% (w/v) hyaluronic acid suspended in the 0.5% methylcellulose solution twice a day for 15 days at 3 μL for each of both eyes. In Example 4, 1, 3, 6, 8, and 15 days after the start of instillation of the comparative test drug, 1 μL of the 0.1% fluorescein sodium solution was instilled into each of both eyes. Fluorescein-stained images were observed under a blue filter using a slit lamp (Kowa Co., Ltd., SL-17), and the degree of corneal epithelial damage was scored.

The subject of test [4] is dry eye model. The test can be described thus: Schirmer test (tear volume), dry eye model by erlotinib instillation (Example 1). Type of test: in vivo. To be noted: 0.003% (w/v) apocynin in PBS, 3 μL twice daily, two weeks after start of instillation; erlotinib-instilled C57BL6 mice; FIG. 2. From the text:
After acclimating male C57BL6 mice (7 weeks old) to the experimental environment, those with almost uniform body weight values and no eye abnormalities were divided into the following 3 groups (n=5). • 7 weeks old/normal (non-dry eye group) • 7 weeks old/dry eye model+control (solvent eye drop) group • 7 weeks old/dry eye model+apocynin eye drop group The dry eye model was created by daily instillation of an EGF receptor inhibitor (erlotinib) based on the method of Yang et al. In this model, administration of erlotinib causes dry eye symptoms such as shortened BUT, decreased tear volume, and corneal damage after 1 week of administration (Non-patent Document 3). After 20 μM of erlotinib was instilled for 2 weeks, the control group received PBS alone, and the test group received 3 μL of a suspension of 0.003% (w/v) apocynin in PBS twice daily. Two weeks after the start of instillation, 1 μL of 0.1% sodium fluorescein solution was instilled into each of both eyes under isoflurane anesthesia, and a BUT test was performed using a slit lamp (Kowa Co., Ltd., SL-17) (FIG. 1). […] Under anesthesia, the tip of a Schirmer test paper cut to 1 mm width was inserted into the conjunctival sac of the lower eyelid of the mouse, the test paper was removed after 5 minutes, the length of the wetted part was read in units of 0.5 mm, and the value was used as the tear volume (FIG. 2).

The test system of test [5] is dry eye model. As to the kind of experiment: Schirmer test (tear volume), 0.2% benzalkonium chloride dry eye model, Comparative Study 2 (Example 5). The following applies: 2 days after start, compared to hyaluronic acid and diquafosol sodium groups, FIG. 10. Type of test: in vivo, mice. The source says:
After acclimating male C57BL6 mice (7 weeks old) to the experimental environment, those with almost uniform weight values and no eye abnormalities were divided into the following groups (n=3 to 4). • 7 weeks old/normal (non-dry eye group) • 7 weeks old/dry eye model+control (solvent eye drop) group • 7 weeks old/dry eye model+0.003% (w/v) apocynin eye drop group • 7 weeks old/dry eye model+0.03% (w/v) apocynin eye drop group • 7 weeks old/dry eye model+3% diquafosol sodium eye drop group • 7 weeks old/dry eye model+0.5% (w/v) hyaluronic acid eye drop group A dry eye model was created by instilling 3 μL of the 0.2% benzalkonium chloride solution into each of both eyes twice a day for 8 days. Then, the control group received PBS alone, and the test group received 0.003% (w/v), 0.03% (w/v) apocynin and 0.5% (w/v) hyaluronic acid in PBS. The 3% diquafosol sodium eye drop was instilled into each of both eyes at 3 μL, twice a day for 9 days. Two days after the start of instillation of the comparative test drug, the Schirmer test was performed to evaluate the tear volume.

We go through 1 compound from patent US20230338307A1, “PROPHYLACTIC AGENT, AMELIORATING AGENT, AND THERAPEUTIC AGENT FOR DRY EYE” (TSUBOTA LABORATORY, INC., priority 2020, published 2023).

In the case of `COc1cc(C(C)=O)ccc1O` [apocynin, 4-hydroxy-3-methoxyacetophenone], the “tear film breakup time (BUT)” value in test [1] is recorded as “significantly improved”. The “corneal epithelial damage (fluorescein staining score)” value in test [2] is “significantly improved”. Besides, the “fluorescein staining score (corneal damage)” value is reported as “significantly reduced” in test [3] (3 days after start of instillation, compared to control, 0.1% (w/v) apocynin or 0.5% (w/v) hyaluronic acid twice a day, FIG. 9A) and “significant decrease” in test [3] (15 days after start of instillation, 0.1% (w/v) apocynin twice a day, FIG. 9B). Besides, the “tear volume (Schirmer test)” value is recorded as “improved” in test [4], “significantly improved” in test [5] (0.003% apocynin eye drop) and “significantly improved” in test [5] (0.03% apocynin eye drop).
